Reference: patent publication US20200054633A1 (priority 2017, published 2020)

Settings: 600 mg, OST placebo; N=74
From the text: This study followed a randomized, double-blind, placebo-controlled, parallel-group, multicenter design.
Analysis set for safety: Safety Set included all subjects who received at least 1 dose of study drug.

## O=C(O)[C@H]1C2CCC(CC2)[C@@H]1Nc1nc(-c2c[nH]c3ncc(F)cc23)ncc1F [Compound (1), Pimodivir]
  Any TEAE: 39 (52.7%)
  Any TEAE at least possibly related to study medication: 26 (35.1%)
  Any TEAE leading to a temporary stop of study medication: 2 (2.7%)
  Any TEAE leading to permanent stop of study medication: 3 (4.1%)
  Any TEAE with fatal outcome: 0
  Grade 3 TEAE: Anaemia: 0
  Grade 3 TEAE: Balance disorder: 0
  Grade 3 TEAE: Blood and lymphatic system disorders: 1 (1.4%)
  Grade 3 TEAE: Blood creatine phosphokinase increased: 1 (1.4%)
  Grade 3 TEAE: Bronchitis: 0
  Grade 3 TEAE: Constipation: 1 (1.4%)
  Grade 3 TEAE: Diarrhoea: 1 (1.4%)
  Grade 3 TEAE: Fatigue: 0
  Grade 3 TEAE: Gastrointestinal disorders: 2 (2.7%)
  Grade 3 TEAE: General disorders and administration site conditions: 0
  Grade 3 TEAE: Hyperkalaemia: 1 (1.4%)
  Grade 3 TEAE: Infections and infestations: 0
  Grade 3 TEAE: Investigations: 1 (1.4%)
  Grade 3 TEAE: Lymphopenia: 1 (1.4%)
  Grade 3 TEAE: Metabolism and nutrition disorders: 1 (1.4%)
  Grade 3 TEAE: Nausea: 0
  Grade 3 TEAE: Nervous system disorders: 0
  Grade 3 TEAE: Neutropenia: 0
  Grade 3 TEAE: Neutrophil count decreased: 0
  Grade 3 TEAE: Protein urine present: 0
  Grade 3 TEAE: Syncope: 0
  Grade 3 TEAE: Thrombocytopenia: 0
  Grade 3 TEAE: Vomiting: 0
  TEAE: Abdominal discomfort: 1 (1.4%) n (%)
  TEAE: Abdominal pain: 0 n (%)
  TEAE: Abdominal pain upper: 2 (2.7%) n (%)
  TEAE: Abdominal tenderness: 0 n (%)
  TEAE: Alanine aminotransferase increased: 2 (2.7%) n (%)
  TEAE: All events: 39 (52.7%) n (%)
  TEAE: Anaemia: 0 n (%)
  TEAE: Aphthous stomatitis: 0 n (%)
  TEAE: Aspartate aminotransferase increased: 1 (1.4%) n (%)
  TEAE: Atrioventricular block first degree: 0 n (%)
  TEAE: Back pain: 1 (1.4%) n (%)
  TEAE: Bacterial vaginosis: 0 n (%)
  TEAE: Balance disorder: 0 n (%)
  TEAE: Blood and lymphatic system disorders: 3 (4.1%) n (%)
  TEAE: Blood bicarbonate decreased: 0 n (%)
  TEAE: Blood bilirubin decreased: 0 n (%)
  TEAE: Blood bilirubin increased: 0 n (%)
  TEAE: Blood creatine phosphokinase increased: 1 (1.4%) n (%)
  TEAE: Blood creatinine increased: 0 n (%)
  TEAE: Blood glucose increased: 1 (1.4%) n (%)
  TEAE: Blood potassium increased: 1 (1.4%) n (%)
  TEAE: Blood pressure diastolic increased: 1 (1.4%) n (%)
  TEAE: Blood urine: 0 n (%)
  TEAE: Bradycardia: 1 (1.4%) n (%)
  TEAE: Bronchitis: 0 n (%)
  TEAE: Cardiac disorders: 1 (1.4%) n (%)
  TEAE: Constipation: 1 (1.4%) n (%)
  TEAE: Contusion: 1 (1.4%) n (%)
  TEAE: Cough: 1 (1.4%) n (%)
  TEAE: Decreased appetite: 0 n (%)
  TEAE: Dehydration: 0 n (%)
  TEAE: Diabetes mellitus: 0 n (%)
  TEAE: Diarrhoea: 20 (27.0%) n (%)
  TEAE: Dizziness: 2 (2.7%) n (%)
  TEAE: Dry mouth: 1 (1.4%) n (%)
  TEAE: Dry skin: 1 (1.4%) n (%)
  TEAE: Dysgeusia: 0 n (%)
  TEAE: Dyspepsia: 0 n (%)
  TEAE: Dyspnoea: 0 n (%)
  TEAE: Dysuria: 0 n (%)
  TEAE: Ear and labyrinth disorders: 0 n (%)
  TEAE: Ear discomfort: 0 n (%)
  TEAE: Ecchymosis: 0 n (%)
  TEAE: Electrocardiogram ST segment depression: 0 n (%)
  TEAE: Enteritis: 0 n (%)
  TEAE: Fatigue: 0 n (%)
  TEAE: Fungal infection: 0 n (%)
  TEAE: Gamma-glutamyltransferase increased: 1 (1.4%) n (%)
  TEAE: Gastrointestinal disorders: 22 (29.7%) n (%)
  TEAE: General disorders and administration site conditions: 0 n (%)
  TEAE: Glomerular filtration rate decreased: 1 (1.4%) n (%)
  TEAE: Gout: 0 n (%)
  TEAE: HIV antibody positive: 0 n (%)
  TEAE: HIV test positive: 0 n (%)
  TEAE: Haematuria: 0 n (%)
  TEAE: Haemoglobin decreased: 0 n (%)
  TEAE: Haemoglobin increased: 0 n (%)
  TEAE: Headache: 1 (1.4%) n (%)
  TEAE: Hepatic enzyme increased: 1 (1.4%) n (%)
  TEAE: Hepatitis C: 0 n (%)
  TEAE: Herpes simplex: 0 n (%)
